The text below walks through data of patent publication US6652874B2, “Pharmaceutical preparations and methods for their regional administration” (FemmePharma, priority 1997, dated 2003).

The structures appear in SMILES notation.

For series [1] the following is noted: high doses, up to 800 mg daily; cited from earlier work.
For series [2] the following is noted: rat, in vivo. Here is the method: Mature female Sprague-Dawley rats were used for the experiment. 1 mg of the microparticulate danazol was delivered in a volume of 50 μl to the vaginal vault and the animals sacrificed at the times noted below. The uterus and ovaries were separately homogenized and blood was drawn. All tissues and biological samples were processed. Danazol was extracted and assayed by HPLC methodology.
Danazol was extracted from serum and tissue hexane/chloroform 80/20. For tissues, 1 ml aliquote of each homogenate was taken. The extracted danazol was reconstituted in a water/acetonitrile mobile phase and a Beckman Ultrasphere 5 micron, 4.6 mm×15 cm reverse phase column (C-18 RP) was used for all the HPLC analyses. A danazol recovery study was conducted using danazol drug product. The recovery was determined by comparing the extracted signal with unextracted signal.

Regarding `C#C[C@]1(O)CC[C@H]2[C@@H]3CCC4=Cc5oncc5C[C@]4(C)[C@H]3CC[C@@]21C` [Danazole, Danazol], in series [1], the Adverse side effects result is “adverse side effects are seen”. In series [2], the “Serum drug levels (in words)” value was “almost undetectable”.
